Format in all cases: cell-based
In test [1] the target is T1, 17β-hydroxysteroid dehydrogenase type 2 (17β-HSD type 2) (Homo sapiens, UniProt P37059).
T1 construct: expressed in transfected cells; host or cells: MCF-7
T1 sequence (P37059 1-387): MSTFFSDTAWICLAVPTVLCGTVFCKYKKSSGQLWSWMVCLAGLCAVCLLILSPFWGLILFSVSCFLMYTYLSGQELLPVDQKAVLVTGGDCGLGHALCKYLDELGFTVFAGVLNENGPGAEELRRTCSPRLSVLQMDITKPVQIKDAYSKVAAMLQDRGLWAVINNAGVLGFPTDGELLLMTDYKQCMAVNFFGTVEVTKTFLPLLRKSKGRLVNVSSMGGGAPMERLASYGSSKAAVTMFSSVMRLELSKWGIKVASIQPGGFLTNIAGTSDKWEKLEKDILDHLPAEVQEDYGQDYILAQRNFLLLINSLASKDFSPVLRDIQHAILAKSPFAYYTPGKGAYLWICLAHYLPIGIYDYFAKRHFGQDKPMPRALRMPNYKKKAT
Description: Inhibition of 17β-HSD type 2 in MCF-7 cells stably expressing the isoenzyme (tritium labeled estradiol conversion, HPLC). The following applies: MCF7, MCF-7 cells expressing 17β-HSD type 2, 2 nM tritium labeled estradiol; for inhibition at 1 µM: 1 μM test compound, read-out: % Inhibition HSD2 1 μM; for inhibition at 10 µM: 10 μM test compound, read-out: % Inhibition HSD2 10 μM. A digest of the protocol:
(§1)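 Whole-cell MCF-7 lines, one isoenzyme each; substrate 2 nM ³H-estrone (type 1), ³H-estradiol (type 2) or ³H-androstenedione (type 3) in growth medium + compound at two concentrations. TCA stop, HPLC-radioflow read; % inhibition from reduced conversion vs no-compound control.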

Test [2] has as its target T2, 17β-hydroxysteroid dehydrogenase type 1 (17β-HSD type 1) (Homo sapiens, UniProt P14061).
T2 construct: expressed in transfected cells; host or cells: MCF-7
T2 sequence (P14061 1-328): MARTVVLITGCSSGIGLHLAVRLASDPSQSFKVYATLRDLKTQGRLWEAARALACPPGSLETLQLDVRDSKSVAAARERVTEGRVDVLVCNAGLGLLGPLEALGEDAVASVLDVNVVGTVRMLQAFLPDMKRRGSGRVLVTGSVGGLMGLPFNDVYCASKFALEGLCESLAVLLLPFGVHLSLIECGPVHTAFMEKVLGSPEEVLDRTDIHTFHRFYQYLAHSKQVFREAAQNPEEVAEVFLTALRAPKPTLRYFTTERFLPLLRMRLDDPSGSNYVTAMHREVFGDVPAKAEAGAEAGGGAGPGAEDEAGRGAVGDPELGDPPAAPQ
The experiment in a line: Inhibition of 17β-HSD type 1 in MCF-7 cells stably expressing the isoenzyme (tritium labeled estrone conversion, HPLC). Particulars: MCF7, MCF-7 cells expressing 17β-HSD type 1, 2 nM tritium labeled estrone; for inhibition at 1 µM: 1 μM test compound, read-out: % Inhibition HSD1 1 μM; for inhibition at 10 µM: 10 μM test compound, read-out: % Inhibition HSD1 10 μM. In outline: as §1

Test [3] deals with T3, 17β-hydroxysteroid dehydrogenase type 3 (17β-HSD type 3) (Homo sapiens, UniProt P37058).
T3 construct: expressed in transfected cells; host or cells: MCF-7
T3 sequence (P37058 1-310): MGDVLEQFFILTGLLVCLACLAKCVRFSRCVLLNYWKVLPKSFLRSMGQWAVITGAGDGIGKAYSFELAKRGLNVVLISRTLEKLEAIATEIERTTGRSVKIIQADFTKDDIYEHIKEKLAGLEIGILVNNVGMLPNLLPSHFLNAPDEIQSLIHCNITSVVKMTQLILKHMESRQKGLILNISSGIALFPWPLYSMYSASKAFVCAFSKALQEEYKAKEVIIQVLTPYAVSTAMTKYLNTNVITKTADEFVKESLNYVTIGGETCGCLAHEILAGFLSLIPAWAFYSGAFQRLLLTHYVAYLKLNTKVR
Description: Inhibition of 17β-HSD type 3 in MCF-7 cells stably expressing the isoenzyme (tritium labeled androstenedione conversion, HPLC). The following applies: MCF7, MCF-7 cells expressing 17β-HSD type 3, 2 nM tritium labeled androstenedione; for inhibition at 1 µM: 1 μM test compound, read-out: % Inhibition HSD3 1 μM; for inhibition at 10 µM: 10 μM test compound, read-out: % Inhibition HSD3 10 μM. In outline: as §1

The source of these data is US7524853B2 (Solvay Pharmaceuticals B.V., priority 2003, dated 2009).

Structures are written as SMILES.

A word on the inhibition: it is the relative decrease from the control value, in per cent. Regarding `COc1ccc(-c2nc3sc4c(c3c(=O)n2-c2ccccc2)CCCC4)cc1` [No. 22, 3-Phenyl-2-(p-methoxyphenyl)-5,6,7,8-tetrahydro-3H-benzo[4,5]thieno[2,3-d]pyrimidin-4-one], the inhibition at 1 µM in test [1] is 13%; in test [2] it was 26%; in test [3] it was -1.8%. Further, the inhibition at 10 µM stood at 14.9% in test [1], 38.1% in test [2] and 28.6% in test [3].
Regarding `COc1cc(-c2nc3sc4c(c3c(=O)n2CC(C)C)CCC(Br)C4=O)c(Br)c(OC)c1OC` (stereo not drawn) [No. 116, 7-Bromo-2-(2-bromo-3,4,5-trimethoxypheny1)-3-isobutyl-6,7-dihydro-3H,5H-benzo[4,5]thieno[2,3-d]pyrimidine-4,8-dione], the inhibition at 1 µM in test [1] amounted to 28%; in test [2] it was 12.5%; in test [3], 8.1%. For the same molecule, the inhibition at 10 µM in test [1] stood at 26.1%; in test [2], 41.4%; in test [3], 21.2%.
With `CCCCn1c(-c2cc(OC)c(OC)c(OC)c2)nc2sc3c(c2c1=O)CCC(Br)(Br)C3=O` [No. 88, 3-Butyl-7,7-dibromo-2-(3,4,5-trimethoxyphenyl)-6,7-dihydro-3H,5H-benzo[4,5]thieno[2,3-d]pyrimidine-4,8-dione], the inhibition at 1 µM in test [1] stood at 25.9%; in test [2], 25%; in test [3], 20.4%. For the same molecule, the results for the inhibition at 10 µM in test [1], in test [2] and in test [3] were 29.9%, 40.5% and 23.3%, respectively.
